The text below walks through data of patent US6613512B1, “Apparatus and method for correcting for variable velocity in microfluidic systems” (Caliper Technologies Corp., priority 1997, dated 2003).

Format in all cases: biochemical
For one test, the target named is T1, HCV protease (Hepatitis C virus genotype 1a, UniProt P27958).
T1 construct: HCV protease was used in a similar fluorogenic assay
The settings on record: Chip; 25 mM TRIS/HCL, pH 8.5, 0.1% Triton X-100, 10 mM DTT, 1M NDSB-195.

In test [1] the target is T2, LAR phosphatase (Homo sapiens, UniProt P10586). The test is described as follows: Continuous flow LAR phosphatase assay with fluorogenic substrate dFMUP on a 7A microchip. The source says:
In many cases, the biochemical system that is being assayed can be selected or engineered to have an easily detectable result. For example, assaying enzyme function is typically made simple by utilizing fluorogenic substrates for the enzyme, e.g., non-fluorescent substrates which yield fluorescent products. Such assays are readily incorporated into microfluidic devices for performance of assays to identify compounds that may effect normal enzyme activity. In one embodiment, using a 7A chip as described supra (see, e.g., FIG. 7), one continuously flows enzyme and fluorogenic substrate through a channel of the device. This continuous flow of enzyme and substrate produces a steady state fluorescent signal from the fluorescent product. Enzyme inhibitor (or, e.g., compounds for which one wishes to test inhibitory activity) are periodically introduced into the main channel. These inhibitors then reduce the amount of product produced within the main channel resulting in a deviation from the steady state signal. Specifically, both phosphatase assays and protease assays were performed using a 7A chip.
The phosphatase assay utilizes a fluorogenic substrate dFMU, which produces a fluorescent signal upon dephosphorylation. The reaction is shown schematically in FIG. 12. […] In this experiment, the running buffer was 1 M NDSB-195 in 25 mM HEPES, pH 7.9. Reagent concentrations were 125 nM LAR, 50 μM dFMUP and 200 μM peptide inhibitor in wells 6, 8 and 2 respectively. Each reagent well was paired with a well containing running buffer. The system was programmed to repeatedly run a sixteen-step loop of experiments. The sixteen steps were a series of controls followed by the enzyme plus substrate experiment. Each step of the loop conserved the total current flux in the main reaction channel. The total flux remained constant during each step of the loop by maintaining a constant sum of currents from the wells. The proportion of that overall flux from each reagent and buffer well was selected to provide the desired final reagent concentration in the main reaction channel. The fluorescence response was monitored in each of the sixteen experimental steps where the continuous flow stream alternated between buffer, substrate, buffer, substrate plus enzyme at four different substrate concentrations. An example of a controller program is shown below, Table 2.
The substrate concentration was varied for each sequence of three controls followed by the enzyme reaction. The concentrations of the reagents in the main channel can be calculated from the ratio of currents used to pump the reagents. The concentrations in the reaction channel are simply the concentration in the well multiplied by the ratio of current applied at that well, divided by the total current. Here the reaction mixture was […], and either 5, 12.5, 17 or 25 μM dFMUP. The raw fluorescence data is plotted as a function of time. […] Rise times for the enzyme/substrate signal are less than 5 seconds. The background signal remained low over the course of many experimental cycles.
The raw data for the Km, Vmax, kcat and Ki determinations are plotted in FIG. 14. Each trace represents a set of experiments performed in seven step cycles. The enzyme solution was pumped continuously, providing a final concentration of 83 nM LAR in 1 M NDSB-195, 50 mM HEPES, pH 7.5 in the reaction channel, while the signal at various substrate concentrations was recorded. The first step of the cycle is an enzyme only control. Steps two through six contain different levels of substrate up to an including 17 μM dFMUP. The final step of the cycle is a substrate only control, 17 μM dFMUP with no enzyme. The entire experiment, (no peptide inhibitor), was repeated at two inhibitor concentrations, 35 uM and 69 uM peptide. […]

Test [2] deals with T2, LAR phosphatase. The test is described as follows: LAR phosphatase/dFMUP assay in a cuvette on the spectrophotometer. The settings on record: 1M NDSB-195/50 mM Hepes, pH 7.5, 0.1 mg/ml BSA. As for the experimental part: A least squares fit of the three straight lines: no inhibitor, 35 μM and 69 μM peptide, was performed with the constraint that they meet at a common intercept on the y axis, 1/Vmax FIG. 15. […] The kcat is 4.74 μmol/min nmol LAR. The parallel analysis performed on the spectrophotometer in the same running buffer yielded a kcat of 6 μmol/min nmol LAR. […] The same analysis performed in a cuvette experiment with 1 mg/ml BSA in the running buffer gave 167 μM peptide.
In addition to the above kinetic studies, rate as a function of substrate concentration data was collected on three separate chips in order to consider interchip reproducibility for Km analyses. The combined data were used to prepare a double reciprocal plot. […] This is in excellent agreement with cuvette experiments performed on the spectrophotometer where dFMU was detected at 360 nm in a temperature controlled cuvette at 25° C.

[3] abbreviates: chip, 50 mM HEPES, pH 7.5, 10 mM DTT, 0.5 M NDSB-195.

T2 sequence (P10586 30-1907): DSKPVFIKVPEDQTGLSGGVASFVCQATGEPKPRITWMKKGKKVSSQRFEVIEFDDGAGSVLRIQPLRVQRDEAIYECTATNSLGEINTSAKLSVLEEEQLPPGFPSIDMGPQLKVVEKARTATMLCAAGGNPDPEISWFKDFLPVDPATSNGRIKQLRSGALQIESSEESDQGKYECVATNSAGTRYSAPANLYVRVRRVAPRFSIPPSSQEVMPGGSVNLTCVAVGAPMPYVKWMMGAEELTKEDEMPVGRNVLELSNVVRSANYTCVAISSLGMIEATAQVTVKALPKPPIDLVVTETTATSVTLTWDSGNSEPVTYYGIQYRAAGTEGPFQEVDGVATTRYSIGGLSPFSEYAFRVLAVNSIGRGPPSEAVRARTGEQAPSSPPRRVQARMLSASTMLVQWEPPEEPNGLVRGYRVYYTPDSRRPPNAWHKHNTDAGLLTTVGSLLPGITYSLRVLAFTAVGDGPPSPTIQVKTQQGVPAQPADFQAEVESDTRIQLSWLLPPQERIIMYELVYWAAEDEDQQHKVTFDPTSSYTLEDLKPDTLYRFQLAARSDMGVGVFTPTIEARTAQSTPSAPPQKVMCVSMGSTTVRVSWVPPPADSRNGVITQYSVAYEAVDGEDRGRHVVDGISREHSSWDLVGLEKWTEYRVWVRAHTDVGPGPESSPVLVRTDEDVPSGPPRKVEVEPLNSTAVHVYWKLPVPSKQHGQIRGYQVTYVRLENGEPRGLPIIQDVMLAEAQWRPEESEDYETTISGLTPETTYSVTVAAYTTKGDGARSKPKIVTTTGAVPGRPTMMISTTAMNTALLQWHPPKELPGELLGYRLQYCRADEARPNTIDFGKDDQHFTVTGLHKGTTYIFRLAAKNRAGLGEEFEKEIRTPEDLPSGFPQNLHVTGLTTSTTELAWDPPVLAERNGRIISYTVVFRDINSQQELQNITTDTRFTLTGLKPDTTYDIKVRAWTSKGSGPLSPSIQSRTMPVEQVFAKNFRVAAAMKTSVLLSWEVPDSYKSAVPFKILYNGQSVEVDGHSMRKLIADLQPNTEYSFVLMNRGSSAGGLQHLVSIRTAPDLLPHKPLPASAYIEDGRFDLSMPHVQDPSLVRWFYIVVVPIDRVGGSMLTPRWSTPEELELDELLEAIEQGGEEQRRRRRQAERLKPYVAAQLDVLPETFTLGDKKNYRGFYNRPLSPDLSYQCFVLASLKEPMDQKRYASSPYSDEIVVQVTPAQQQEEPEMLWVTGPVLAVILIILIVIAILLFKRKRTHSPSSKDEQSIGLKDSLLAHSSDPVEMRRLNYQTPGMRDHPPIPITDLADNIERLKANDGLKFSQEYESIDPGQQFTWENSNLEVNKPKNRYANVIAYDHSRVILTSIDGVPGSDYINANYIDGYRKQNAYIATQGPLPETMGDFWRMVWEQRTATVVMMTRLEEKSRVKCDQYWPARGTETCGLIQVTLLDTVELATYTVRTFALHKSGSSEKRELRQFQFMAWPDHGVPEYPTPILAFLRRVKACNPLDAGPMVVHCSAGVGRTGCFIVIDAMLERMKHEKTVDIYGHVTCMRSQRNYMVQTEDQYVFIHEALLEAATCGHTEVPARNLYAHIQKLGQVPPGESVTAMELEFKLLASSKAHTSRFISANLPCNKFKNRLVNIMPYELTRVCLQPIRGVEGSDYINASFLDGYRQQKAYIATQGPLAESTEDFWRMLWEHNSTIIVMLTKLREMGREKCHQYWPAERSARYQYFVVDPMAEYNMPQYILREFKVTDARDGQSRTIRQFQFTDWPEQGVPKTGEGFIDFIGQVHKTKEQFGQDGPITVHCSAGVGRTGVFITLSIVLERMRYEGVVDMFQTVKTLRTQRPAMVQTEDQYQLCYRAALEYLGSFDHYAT
T1 sequence (P27958 1027-1208): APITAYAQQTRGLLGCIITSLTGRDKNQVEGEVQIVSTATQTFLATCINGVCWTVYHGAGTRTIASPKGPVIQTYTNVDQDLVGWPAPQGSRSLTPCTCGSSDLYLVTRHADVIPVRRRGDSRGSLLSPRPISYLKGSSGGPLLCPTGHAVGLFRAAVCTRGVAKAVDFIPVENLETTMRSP
Method for HCV protease: The product fluorescence is proportional to the amount of cleaved substrate. The height of the product signal is proportional to the rate of enzyme turnover for that substrate concentration. The rate of fluorescence generation can be assessed as the fluorescence signal per mixing time of substrate and enzyme in the reaction channel. That mixing time is determined by the mean residence time of the fluorescent product in the reaction channel as it is electrokinetically pumped from the source of the mixing to the detector. Km was determined from the Michaelis Menton equation.
Due to the chemistry of this FRET quenching reaction, several considerations for accurate measurement of Km on the Labchip™ exist. (1.) There is not an accurate calibration curve for the EDANS labeled product. (2) Accurate determination of the substrate concentration in the Labchip™ reagent well by a simple spectrophotometric measurement is not performed. […]
Note however that this well controlled background fluorescence is not the substrate only background. The extent of substrate hydrolysis over time could not be measured in the continuous flow analysis where enzyme was pumped throughout the course of the experiments. […]
The average percent inhibition response was calculated for the first three inhibited and uninhibited signals at the start of each hour.

As for `C/C=C1\NC(=O)[C@H]2CSSCC/C=C/[C@H](CC(=O)N[C@H](C(C)C)C(=O)N2)OC(=O)[C@H](C(C)C)NC1=O` [Depsipeptide], the Km on HCV protease is 110 µM.
Take `Cc1cc(=O)oc2c(F)c(OP(=O)(O)O)c(F)cc12` [dFMUP]: the kcat is 4.74 μmol/min nmolLAR at LAR phosphatase [1] (Chip, 1M NDSB-195/50 mM Hepes, pH 7.5, 83 nM LAR); 3000 to 5000 min⁻¹ at LAR phosphatase [1] (setting [3]); 6 μmol/min nmolLAR at LAR phosphatase [2] (Cuvette (spectrophotometer)). Also, the Km at LAR phosphatase [1] (Chip, 1M NDSB-195/50 mM Hepes, pH 7.5, average of three chips, read-out: Km LAR/dFMUP) was 18.7 µM; at LAR phosphatase [1] (Chip, combined data of three separate chips, double reciprocal plot, read-out: Km), 18.2 µM; at LAR phosphatase [1] (chip, 50 mM HEPES, pH 7.5, 10 mM DTT, 0.5 M NDSB-195, read-out: Km), 20 to 400 µM; on LAR phosphatase [2] (Cuvette, 25° C, average of four determinations), 23.2 µM. The Vmax stood at 6.71 μM dFMU/s on LAR phosphatase [1] (Chip, least squares fit of Lineweaver-Burke lines, 83 nM LAR) and 0.011 mM/s on LAR phosphatase [1] (setting [3]).
